{"source": "patent EP1978972B1", "about": "“USE OF ALKYLGLUCOSIDE ESTERS AS BETA-DEFENSIN INDUCERS” (Pierre Fabre Dermo-Cosmétique, priority 2006, dated 2007)", "key": {"[1]": {"system": "hBD-2", "experiment": "cells", "assay_type": "cell-based, human", "conditions": "HaCat; for induction de la synthèse du peptide hBD-2: starting materials of the enzymatic synthesis, in words", "source_text": "(§1) Il est connu de WO 97/45101 que les esters d'α-alkylglucoside peuvent être utilisés comme agent anti-microbien et/ou anti-fongique pour agir en tant que conservateur dans une composition, pour la préserver d'un développement microbien. D'autre part, les propriétés moussantes des esters de méthyl glucose sont décrites dans Desai et al (« Sofw Journal Seife, Oele, Fette, Wachse, Verlag für chemische Industrie » 1991). • Modèle cellulaire : lignée cellulaire HaCat, kératynocytes d'origine humaine, primoculture de kératinocytes humains • Modèle tissulaire : • Explants de peau normale provenant de déchet opératoire de chirurgie esthétique • Explants de gencive normale provenant de déchet opératoire de chirurgie implantatoire ou d'épithélium gingival reconstruit à partir de cellules épithéliales orales primaires • ➢ Les cellules HaCat sont ensemencées et cultivées en plaque 6 puits à 200 000 cellules/puits sous un volume de 2 ml de milieu de culture DMEM 1640 : (Ref: Invitrogen) complémenté par 10 % de sérum de veau foetal (SVF, Ref : CH30160.02 Perbio-Hyclone) pendant 18 h (sur la nuit). • ➢ A T0 les cellules sont lavées avec du tampon Phosphate (PBS, Ref: 52100-039 Invitrogen) puis privées en sérum pour les rendre quiescentes pendant 24 h (ralentissement de leur croissance et élimination de toute trace de facteurs susceptibles de perturber les effets induits par les traitements ultérieurs). • ➢ A T0+24 h les cellules sont traitées par des cytokines pro-inflammatoires (TNF-α à 10 ng/ml, IL1-β à 10 ng/ml) ou des éléments bactériens (LPS à 50 ng/ml, SEB à 100 ng/ml) ou des actifs potentiels de type « alkyle mono- ou di-ester d'α,β-butylglucoside » dilués dans du DMEM (1 ml/puits); La durée du traitement est de 3 h à 37°C. • ➢ Les kératinocytes primaires sont préparés à partir de peau normale provenant de déchet opératoire de chirurgie esthétique. […]\nLa méthode de RT-PCR quantitative utilisée est décrite dans le matériel et méthode. […]"}, "[2]": {"system": "hBD-2", "assay_type": "cell-based, human", "conditions": "skin explant, systemic, 3 µg/ml, 2 h and 15 h, in words", "source_text": "as §1, with “esthétique. Ils sont ensemencés et cultivés en plaque 24 puits à 60 000 cellules/puits sous un volume de 0,5 ml de milieu de culture KSFM (Ref : 37010 Invitrogen) complémenté par de l'EGF (Epidermal Growth Factor) à 1,5 ng/ml et du BPE (bovine pituitary extract) à 25 µg/ml pendant 24 h. • ➢ A J0, le milieu est remplacé par 0,5 ml de milieu KSFM complet, additionné de 1,2 nM de calcium. • ➢ A J+3, les cellules sont traitées par des cytokines pro-inflammatoires TNF-α et IL 1-β à 10 ng/ml ou des actifs potentiels de type « alkyle mono- ou di-ester d'α,β-butylglucoside » dilués dans 0,3 ml de milieu KSFM complet, en présence de 1,2 nM de calcium.” for “esthétique.”"}, "[3]": {"system": "S. aureus", "experiment": "Adhesion of S. aureus on skin explant (modified Franz cell), count of adherent bacteria", "assay_type": "cell-based, Staphylococcus aureus", "conditions": "topical 30 µg/ml", "source_text": "Pour révéler le complexe Antigène-Anticorps, le kit DAKO LSAB® (DAKO Corporation) est utilisé selon les recommandations du fournisseur. La révélation est réalisée à l'aide d'un substrat de la péroxydase : la 3,3'diaminobenzidine (DAB) (DAKO Corporation). La réaction enzymatique est révélée par une coloration brune. • ➢L'adhésion des micro-organismes est réalisée dans une cellule à double compartimentation, de type cellule de Franz modifiée. • ➢Une suspension de S.aureus (CIP 53.154) équivalente à 0,5.10^7 micro-organismes est introduite au sein du compartiment supérieur de la cellule. Le dispositif est incubé de 2 h à 37°C sous une atmosphère à 5 % de CO2. A la fin de cette période d'incubation, le surnageant est retiré afin d'éliminer les bactéries non adhérentes. Les échantillons de peau sont ensuite rincés deux fois avec 1 ml de mélange DMEM/HAMF12. Un dénombrement bactérien à l'issue de cette étape donne la proportion de bactéries ayant adhéré à l'explant (T+2 h). Un témoin est réalisé dans le but de déterminer l'adhésion non spécifique des bactéries. • ➢La stimulation de l'expression des β-défensines cutanées précède l'étape d'adhésion. Son objectif est d'étudier l'impact de l'induction des peptides antimicrobiens par des actifs potentiels de type « alkyle mono- ou di-ester d'α,β-butylglucoside » sur l'adhésion de souches bactériennes. Le traitement est effectué en topique ou en systémique. Le temps de stimulation des explants cutanés est de 24 h à 37°C en présence de 5 % de CO2.\nPour analyse, les explants sont retirés de leur cellule, des punchs de diamètres différents (3 mm, 4 mm et 6 mm) sont effectués pour un test MTT de survie, les marquages immuno-histologiques et les analyses des transcrits par RT-PCR. Le reste de peau est utilisé pour une estimation de la flore bactérienne adhérente.\nLe dénombrement de la flore bactérienne adhérente exogène par unité de surface de peau a été effectué selon deux méthodes : • par dénombrement bactérien sur milieu solide • par comptage de la radioactivité émise (la souche contaminante étant marquée au H^3) est effectuée. […]\nAprès une application topique de 5 h et plusieurs rinçages de la surface épidermique d'un explant cutané, l'effet du traitement par l'α,β-LBG brut sur l'adhésion de S.aureus sur ce même explant a été quantifié par le dénombrement des germes adhérents à l'issue d'une mise en contact de 2 h. […]\nAprès application topique et plusieurs rinçages de la surface épidermique des explants cutanés, l'effet du traitement par les isoformes de l'ester de laurate de butylglucoside pur à 90 %, séparées, α seul, β seul, ou en mélange α,β-LBG (56 % α/44 % β) sur l'adhésion de S. aureus sur l'épiderme a été comparé après quantification des germes adhérents par dénombrement."}}, "note": "Where two headings read alike, the source gives them in different places."}
{"compound": "CCCCCCCCCCCC(=O)O", "note": "[Acide Laurique]", "values": [{"measurement": "induction de la synthèse du peptide hBD-2", "setting": "[1]", "value": "ne provoquent pas une induction"}, {"measurement": "fold induction at 10 µg/mL", "setting": "[1]; Homo sapiens, hBD-2 mRNA, 3 h, 10 µg/ml, vs unstimulated control, read-out: Facteur d'induction (FI)", "value": 1.1}]}
{"compound": "laurate de butylglucoside [α-LBG pur]", "values": [{"measurement": "induction de l'expression du gène hBD-2", "setting": "[2]; listed as α-LBG pure", "value": "ne présente pas d'activité"}]}
{"compound": "laurate de butylglucoside [αβ-LBG pur]", "values": [{"measurement": "baisse moyenne de l'adhésion de S. aureus", "setting": "[3]; LBG pur à 90 %, vs untreated control", "value": "~19", "unit": "%"}, {"measurement": "induction de l'expression du gène hBD-2", "setting": "[2]", "value": "potentiel inducteur significatif surtout après une durée de traitement longue"}]}
{"compound": "laurate de butylglucoside [β-LBG pur]", "values": [{"measurement": "limitation de l'adhésion de S. aureus", "setting": "[3]; comparison of isoforms, in words", "value": "en moyenne plus actif sur la limitation de l'adhésion de S. aureus que l'isoforme α-LBG"}]}
{"compound": "αβ-butylglucoside", "values": [{"measurement": "induction de la synthèse du peptide hBD-2", "setting": "[1]", "value": "ne provoquent pas une induction"}]}
